Data published in US20210401786A1, “COMPOSITION FOR TREATING BURN WOUNDS” (priority 2020, published 2021).
“And” between values parts separate entries of the source, which are not always exact repeats. Equal entries are not always repeated.

Tests used:
Format in all cases: in vivo, Guangxi Bama mini-pigs
[1] = test system: porcine full-thickness burn wounds; assay: Porcine full-thickness burn wound healing experiment; details: for Wound healing time (days, X +/− S): 9 wounds per group
Experimental: (2) Experimental animals: Three female Guangxi Bama mini-pigs are 19-21 kilograms (provided by Tianjin Bainong Laboratory Animal Breeding Technology Co., Ltd., Tianjin, China). Animals were housed in isolated steel cages (80×100×110 cm^3) at 25° C. under natural lighting in the Experimental Animal Center, after thoroughly disinfecting the breeding room and the cages for animals with disinfectants and ultraviolet lamps. Non-experimental personnel are strictly prohibited from entering the breeding room during the experiment Animals were fed with standard pig chow twice daily, 150 grains at a time, and had access to water ad libitum (water is of the clean standard for tap water). The breeding room and cage are disinfected regularly on a weekly basis, and the feed tank and the water sink are cleaned before each feeding.
(3) Creation of porcine full-thickness burn wound models: The miniature pig was raised conventionally, fasted for 12 h, laid on one side, and injected with sumianxin injection into the hip muscle. Once anesthetized, the miniature pig was transferred to an operating table and a ventilation tube was placed in the mouth. After disinfection of the back of the ear, an indwelling needle of the auricle vein was placed for adequate analgesia and sedation. The surgical area on the back was prepared, disinfected with iodophor, on which a sterile sheet was spread, and an expected site of a burn was marked. The aluminum block mold (the net weight of the aluminum block mold is 265 g, and the load is 1 kg) was heated to 96° C. for 10 minutes, and was in close contact with the skin for 45 seconds. Each pig had 9 wounds. The operation on the back of the 3 mini pigs is consistent. After the operation, the wounds were disinfected with iodophor, on which cotton pads dressing and elastic sleeves were applied. Antibiotics were injected intravenously to prevent infection, and 2 ml of the awakening agent Lu Xingning was injected intravenously. The pigs were then transferred to the cages. One hour after waking up, the pigs were fed and given oral rehydration saline. Activities and signs of the pigs were closely observed. After the burn injury, local debridement and different treatments were performed on the wounds. Three weeks after injury, the wounds were covered by necrotic eschar, without exudate and dissolution reaction. Excisional debridement down to the fat layer was performed. Wounds were then dressed and covered with elasticated jackets to prevent animal-initiated damage. Preemptive antibiotics and analeptic Lu Xingning were administered i.v., then the animals were transferred to individual cages, and monitored closely for adverse outcomes during their post-procedure recovery. Post-surgical pain was managed with oral analgesia.
In order to verify the therapeutic effect of the composition of this application on burn wounds, the composition of Example 3 of this application, recombinant human epidermal growth factor rhEGF (5000 IU/mL, 15 mL, Shenzhen Watsin Genetech Ltd.) and physiological saline were used respectively to treat the full-thickness burn wounds of the pigs.
The wounds were photographed and measured at day 7, 14, 21, 28 after different treatments. It can be seen from FIG. 2 that the new granulation tissue of the wound is fresh and rosy without exudation. […]

CK10 = assay: Immunohistochemistry of healed epidermis, IOD of CK10; details: 4 weeks after treatment, Image-Pro Plus 6.0
Experimental: (§1) An immunohistochemistry analysis was performed to identify the localization and expression of specific molecular markers of keratinocytes in the healed epidermis.
(§2) It can be seen from FIG. 6 that the nuclear transcription factor P63 was mainly expressed in undifferentiated proliferating keratinocytes located in the basal layer. CK 10 was mainly expressed in mature differentiating keratinocytes. The expression of P63 and CK10 protein indicate the proliferation and differentiation of keratinocytes during epithelialization and repair of wounds. The higher the expression of P63 and CK10 protein, the faster the cells proliferate and differentiate. In the late stage of wound repair, fibroblasts secrete more collagen fibers, and a large number of collagen fibers increase and are densely arranged. Masson staining is used to mark the subcutaneous collagen fibers as green. The structure of each layer of the epidermis treated with the present invention is clear. The proliferative layer and the differentiated layer can be clearly identified by immunohistochemical staining.
(§3) Integrated optical density (IOD) values analysis of immunohistological images of P63 and CK10 are performed by Image-Pro Plus 6.0, as shown in Table 3 and FIGS. 8 to 9. […]

[2] = test system: healed epidermis (proliferative layer and differentiated layer); assay: Histologic epidermal thickness of healed porcine burn wounds
Experimental: as §1
The epidermis partitions into two layers: a proliferative layer and a differentiated layer.

P63 = assay: Immunohistochemistry of healed epidermis, IOD of P63; details: 4 weeks after treatment, Image-Pro Plus 6.0
Experimental: as §1, §2, §3

Question: “recombinant human epidermal growth factor [rhEGF]” was tested. Which “wound healing, gross appearance” value ([1]; FIG. 2, versus saline group) did it give?
Answer: The value was “heal faster than those of the saline group”.

Question: What about the residual wound area ([1]; FIG. 3, compared to the saline group, p<0.05) of the same substance?
Answer: The residual wound area was “obviously reduced wound area at day 28”.

Question: And the wound healing rate ([1]; FIG. 4, compared to the saline group, p<0.05)?
Answer: Its wound healing rate is “obviously improved the wound healing rate at day 7, 14, 21”.

Question: And the “Wound healing time (days, X +/− S)” value ([1]; Test Example 1, time to complete epithelialization)?
Answer: Its value is 23.56±4.85 days and 23.56 ± 4.85^2 days.

Question: What about the “Wound healing time (days, X +/− S)” value ([1]; Test Example 3) of the same substance?
Answer: Its value is 23.56 ± 4.85^2 days.

Question: What about the “IOD (CK10) (X +/− S)” value (CK10) of the same substance?
Answer: Its value is 395254.15.

Question: What about the “Thickness of differentiated layer (X +/− S)” value [2] of the same substance?
Answer: The value was 246.20 μm.

Question: And the “Thickness of proliferative layer (X +/− S)” value [2]?
Answer: Its value is 35.92 μm.

Question: And the “IOD (P63) (X +/− S)” value (P63)?
Answer: Its value is 21929.27.
